According to US20250179051A1, “PYRIMIDINLY-OXY-QUINOLINE BASED HERBICIDAL COMPOUNDS” (SYNGENTA CROP PROTECTION AG, priority 2022, published 2025):

Experiments:
Assay type in all cases: in vivo
Details in all cases: 250 g/ha, evaluated after 13 days, five-point scale
[1] = tested on: Amaranthus palmeri (AMAPA); experiment: Post-emergence herbicide glasshouse test
How it was run: (§1)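 Spray at 250 g/ha (unless stated), acetone/water 50:50 + 0.5% Tween 20; pre-em 1 d post-sowing, post-em after 8 d growth. Glasshouse 24/16 °C, 14 h light, 65% RH, watered twice daily. % damage read at 13 d, scored 1 (0–20%) to 5 (81–100%).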

[2] = tested on: Amaranthus retoflexus (AMARE); experiment: Post-emergence herbicide glasshouse test
How it was run: as §1

[3] = tested on: Echinochloa crus-galli (ECHCG); experiment: Post-emergence herbicide glasshouse test
How it was run: as §1

[4] = tested on: Ipomoea hederacea (IPOHE); experiment: Post-emergence herbicide glasshouse test
How it was run: as §1

[5] = tested on: Setaria faberi (SETFA); experiment: Post-emergence herbicide glasshouse test
How it was run: as §1

[6] = tested on: Amaranthus palmeri (AMAPA); experiment: Pre-emergence herbicide glasshouse test
How it was run: as §1

[7] = tested on: Amaranthus retoflexus (AMARE); experiment: Pre-emergence herbicide glasshouse test
How it was run: as §1

[8] = tested on: Echinochloa crus-galli (ECHCG); experiment: Pre-emergence herbicide glasshouse test
How it was run: as §1

[9] = tested on: Ipomoea hederacea (IPOHE); experiment: Pre-emergence herbicide glasshouse test
How it was run: as §1

[10] = tested on: Setaria faberi (SETFA); experiment: Pre-emergence herbicide glasshouse test
How it was run: as §1

Row | SMILES | percentage damage caused to the plant, AMAPA [1] | percentage damage caused to the plant, AMARE [2] | percentage damage caused to the plant, ECHCG [3] | percentage damage caused to the plant, IPOHE [4] | percentage damage caused to the plant, SETFA [5] | percentage damage caused to the plant, AMAPA [6] | percentage damage caused to the plant, AMARE [7] | percentage damage caused to the plant, ECHCG [8] | percentage damage caused to the plant, IPOHE [9] | percentage damage caused to the plant, SETFA [10]
1 | O=C(c1ccc(Br)cn1)c1nc(C(F)(F)F)nc2cccc(Oc3ncc(Cl)cn3)c12 [Compound 1.026] | 2 (2=21-40%) | 1 (1=0-20%) | 1 (1=0-20%) | 1 (1=0-20%) | 1 (1=0-20%) | 4 (4=61-80%) | 4 (4=61-80%) | 1 (1=0-20%) | 1 (1=0-20%) | 1 (1=0-20%)
2 | CN(C)/C=C/c1nc(C(F)(F)F)nc2cccc(Oc3ncc(Cl)cn3)c12 [Compound 1.010, 2-[5-(5-chloropyrimidin-2-yl)oxy-2-(trifluoromethyl)quinazolin-4-yl]-N,N-dimethyl-ethenamine] | 3 (3=41-60%) | 3 (3=41-60%) | 1 (1=0-20%) | 1 (1=0-20%) | 1 (1=0-20%) | 2 (2=21-40%) | 2 (2=21-40%) | 1 (1=0-20%) | 1 (1=0-20%) | 1 (1=0-20%)
3 | CCO/N=C/CCc1nc(C(F)(F)F)nc2cccc(Oc3ncc(Cl)cn3)c12 [Compound 1.009] | 5 (5=81-100%) | 5 (5=81-100%) | 5 (5=81-100%) | 5 (5=81-100%) | 5 (5=81-100%) | 5 (5=81-100%) | 5 (5=81-100%) | 5 (5=81-100%) | 1 (1=0-20%) | 5 (5=81-100%)
4 | CON1CCC(CCc2nc(C(F)(F)F)nc3cccc(Oc4ncc(Cl)cn4)c23)CC1 [Compound 1.023, 5-(5-chloropyrimidin-2-yl)oxy-4-[2-(1-methoxy-4-piperidyl)ethyl]-2-(trifluoromethyl)quinazoline] | 4 (4=61-80%) | 4 (4=61-80%) | 1 (1=0-20%) | 3 (3=41-60%) | 1 (1=0-20%) | 4 (4=61-80%) | 4 (4=61-80%) | 2 (2=21-40%) | 1 (1=0-20%) | 1 (1=0-20%)
5 | CO/N=C\CCc1nc(C(F)(F)F)nc2cccc(Oc3ncc(Cl)cn3)c12 [Compound 1.022, (Z)-3-[5-(5-chloropyrimidin-2-yl)oxy-2-(trifluoromethyl)quinazolin-4-yl]-N-methoxy-propan-1-imine] | 4 (4=61-80%) | 4 (4=61-80%) | 4 (4=61-80%) | 3 (3=41-60%) | 4 (4=61-80%) | 5 (5=81-100%) | 5 (5=81-100%) | 5 (5=81-100%) | 4 (4=61-80%) | 5 (5=81-100%)
6 | CCO/N=C\CCc1nc(C(F)(F)F)nc2cccc(Oc3ncc(Cl)cn3)c12 [Compound 1.047] | 4 (4=61-80%) | 5 (5=81-100%) | 5 (5=81-100%) | 5 (5=81-100%) | 5 (5=81-100%) | 4 (4=61-80%) | 4 (4=61-80%) | 5 (5=81-100%) | 2 (2=21-40%) | 5 (5=81-100%)
7 | FC(F)(F)c1nc(CCC2COC2)c2c(Oc3ncc(Cl)cn3)cccc2n1 [Compound 1.033] | 2 (2=21-40%) | 4 (4=61-80%) | 5 (5=81-100%) | 5 (5=81-100%) | 5 (5=81-100%) | 5 (5=81-100%) | 4 (4=61-80%) | 5 (5=81-100%) | 5 (5=81-100%) | 5 (5=81-100%)
8 | O=C(c1cccnc1)c1nc(C(F)(F)F)nc2cccc(Oc3ncc(Cl)cn3)c12 [Compound 1.030] | 5 (5=81-100%) | 5 (5=81-100%) | 2 (2=21-40%) | 2 (2=21-40%) | 2 (2=21-40%) | 5 (5=81-100%) | 5 (5=81-100%) | 4 (4=61-80%) | 1 (1=0-20%) | 4 (4=61-80%)
9 | COCCCc1nc(C(F)(F)F)nc2cccc(Oc3ncc(Cl)cn3)c12 [Compound 1.024] | 3 (3=41-60%) | 4 (4=61-80%) | 5 (5=81-100%) | 3 (3=41-60%) | 4 (4=61-80%) | 5 (5=81-100%) | 5 (5=81-100%) | 5 (5=81-100%) | 5 (5=81-100%) | 4 (4=61-80%)
10 | O=C(c1ccc(F)cn1)c1nc(C(F)(F)F)nc2cccc(Oc3ncc(Cl)cn3)c12 [Compound 1.027] | 1 (1=0-20%) | 2 (2=21-40%) | 1 (1=0-20%) | 1 (1=0-20%) | 1 (1=0-20%) | 2 (2=21-40%) | 2 (2=21-40%) | 1 (1=0-20%) | 1 (1=0-20%) | 1 (1=0-20%)
11 | CON=C(C)c1nc(C(F)(F)F)nc2cccc(Oc3ncc(Cl)cn3)c12 [Compound 1.066] | 2 (2=21-40%) | 1 (1=0-20%) | 1 (1=0-20%) | 1 (1=0-20%) | 1 (1=0-20%) | 4 (4=61-80%) | 1 (1=0-20%) | 1 (1=0-20%) | 1 (1=0-20%) | 1 (1=0-20%)
12 | CC(=NOCC(F)(F)F)c1nc(C(F)(F)F)nc2cccc(Oc3ncc(Cl)cn3)c12 [Compound 1.018, 1-[5-(5-chloropyrimidin-2-yl)oxy-2-(trifluoromethyl)quinazolin-4-yl]-N-(2,2,2-trifluoroethoxy) ethanimine] | 2 (2=21-40%) | 2 (2=21-40%) | 1 (1=0-20%) | 2 (2=21-40%) | 1 (1=0-20%) | 1 (1=0-20%) | 1 (1=0-20%) | 1 (1=0-20%) | 1 (1=0-20%) | 1 (1=0-20%)
13 | Cc1ccc(Oc2ncc(Cl)cn2)c2c(CCC3CC3)nc(C(F)(F)F)nc12 [Compound 1.059] | 2 (2=21-40%) | 2 (2=21-40%) | 1 (1=0-20%) | 3 (3=41-60%) | 1 (1=0-20%) | 1 (1=0-20%) | 1 (1=0-20%) | 1 (1=0-20%) | 1 (1=0-20%) | 1 (1=0-20%)
14 | C=CCON=CCCc1nc(C(F)(F)F)nc2cccc(Oc3ncc(Cl)cn3)c12 [Compound 1.011] | 4 (4=61-80%) | 5 (5=81-100%) | 4 (4=61-80%) | 2 (2=21-40%) | 4 (4=61-80%) | 5 (5=81-100%) | 5 (5=81-100%) | 4 (4=61-80%) | 2 (2=21-40%) | 5 (5=81-100%)
